{"source": "patent US8569344B2", "about": "“N-piperidinyl acetamide derivatives as calcium channel blockers” (Zalicus Pharmaceuticals Ltd., priority 2008, dated 2013)", "key": {"[1]": {"molecular_target": "T1, human α1G T-type channels (Homo sapiens, UniProt O43497)", "T1 construct": "expressed in transfected cells; host or cells: HEK 293", "T1 sequence (O43497 whole entry)": "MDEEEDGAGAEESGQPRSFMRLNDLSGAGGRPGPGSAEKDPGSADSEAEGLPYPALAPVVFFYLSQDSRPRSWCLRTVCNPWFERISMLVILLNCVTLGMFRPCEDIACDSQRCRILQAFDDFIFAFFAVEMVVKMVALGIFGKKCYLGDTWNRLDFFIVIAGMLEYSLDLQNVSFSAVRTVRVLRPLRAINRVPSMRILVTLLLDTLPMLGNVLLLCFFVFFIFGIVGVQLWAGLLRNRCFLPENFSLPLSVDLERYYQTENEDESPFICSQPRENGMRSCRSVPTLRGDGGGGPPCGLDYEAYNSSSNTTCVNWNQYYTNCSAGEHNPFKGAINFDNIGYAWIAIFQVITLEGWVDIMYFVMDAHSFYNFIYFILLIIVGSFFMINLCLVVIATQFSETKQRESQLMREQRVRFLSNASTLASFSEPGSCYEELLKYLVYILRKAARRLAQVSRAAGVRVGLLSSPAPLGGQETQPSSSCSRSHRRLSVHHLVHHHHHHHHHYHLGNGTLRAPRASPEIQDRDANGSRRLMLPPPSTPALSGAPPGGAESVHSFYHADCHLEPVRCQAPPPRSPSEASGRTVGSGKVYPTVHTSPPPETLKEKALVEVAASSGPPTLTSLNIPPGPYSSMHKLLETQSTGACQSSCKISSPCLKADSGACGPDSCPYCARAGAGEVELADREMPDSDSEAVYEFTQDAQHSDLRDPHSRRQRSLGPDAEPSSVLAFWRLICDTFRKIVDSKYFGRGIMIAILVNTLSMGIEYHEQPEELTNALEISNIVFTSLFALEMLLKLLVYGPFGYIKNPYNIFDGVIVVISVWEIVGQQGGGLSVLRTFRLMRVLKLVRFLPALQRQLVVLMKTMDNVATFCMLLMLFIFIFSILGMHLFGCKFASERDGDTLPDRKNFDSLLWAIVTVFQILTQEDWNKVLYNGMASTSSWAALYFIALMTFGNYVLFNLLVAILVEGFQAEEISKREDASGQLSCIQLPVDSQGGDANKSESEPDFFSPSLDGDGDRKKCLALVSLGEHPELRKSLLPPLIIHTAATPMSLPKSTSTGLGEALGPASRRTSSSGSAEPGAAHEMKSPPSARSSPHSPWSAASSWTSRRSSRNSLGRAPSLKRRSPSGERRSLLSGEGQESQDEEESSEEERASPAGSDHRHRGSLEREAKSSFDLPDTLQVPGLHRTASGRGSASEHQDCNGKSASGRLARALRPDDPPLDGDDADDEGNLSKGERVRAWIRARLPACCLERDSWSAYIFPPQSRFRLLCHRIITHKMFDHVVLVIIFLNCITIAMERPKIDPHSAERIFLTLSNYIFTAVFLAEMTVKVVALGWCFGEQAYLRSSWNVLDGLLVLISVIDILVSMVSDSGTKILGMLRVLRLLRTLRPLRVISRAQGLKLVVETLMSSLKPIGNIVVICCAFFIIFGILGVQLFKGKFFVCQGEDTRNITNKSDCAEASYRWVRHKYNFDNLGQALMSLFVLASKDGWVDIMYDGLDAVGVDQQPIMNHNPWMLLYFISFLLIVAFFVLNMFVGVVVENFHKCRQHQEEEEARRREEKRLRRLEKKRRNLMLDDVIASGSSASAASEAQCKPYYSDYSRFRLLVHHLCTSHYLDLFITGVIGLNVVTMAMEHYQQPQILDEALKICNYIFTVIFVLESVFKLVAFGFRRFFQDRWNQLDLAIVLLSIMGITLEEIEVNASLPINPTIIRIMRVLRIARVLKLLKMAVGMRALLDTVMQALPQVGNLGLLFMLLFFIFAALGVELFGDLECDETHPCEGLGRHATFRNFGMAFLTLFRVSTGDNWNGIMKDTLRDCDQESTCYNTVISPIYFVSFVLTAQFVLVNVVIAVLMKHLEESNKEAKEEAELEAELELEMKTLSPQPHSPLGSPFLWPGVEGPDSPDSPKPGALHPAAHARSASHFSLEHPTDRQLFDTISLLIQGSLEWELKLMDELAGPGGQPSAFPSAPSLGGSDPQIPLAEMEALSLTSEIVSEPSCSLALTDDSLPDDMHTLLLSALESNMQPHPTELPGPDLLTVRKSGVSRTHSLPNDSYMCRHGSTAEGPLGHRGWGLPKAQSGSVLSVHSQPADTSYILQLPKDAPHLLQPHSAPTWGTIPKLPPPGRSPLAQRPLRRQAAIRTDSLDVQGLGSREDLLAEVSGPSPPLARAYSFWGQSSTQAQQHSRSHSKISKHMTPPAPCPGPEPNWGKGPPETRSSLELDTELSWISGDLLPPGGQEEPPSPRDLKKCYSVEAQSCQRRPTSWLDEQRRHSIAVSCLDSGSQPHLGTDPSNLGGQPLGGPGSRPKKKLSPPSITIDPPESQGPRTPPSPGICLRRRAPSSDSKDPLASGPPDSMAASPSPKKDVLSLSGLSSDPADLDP", "assay": "T-type calcium channel block, whole cell patch clamp in HEK cells (α1G)", "format": "cell-based", "conditions": "HEK cells, patch clamp, mainly non-inactivated protocol; values above 10 μM shown as 10 μM, below 0.30 μM shown as 0.30 μM; read-out: T-type Calcium Channel Block α1G IC50"}, "[2]": {"molecular_target": "T2, human α1H T-type channels (Homo sapiens, UniProt O95180)", "T2 construct": "expressed in transfected cells; host or cells: HEK 293", "T2 sequence (O95180 whole entry)": "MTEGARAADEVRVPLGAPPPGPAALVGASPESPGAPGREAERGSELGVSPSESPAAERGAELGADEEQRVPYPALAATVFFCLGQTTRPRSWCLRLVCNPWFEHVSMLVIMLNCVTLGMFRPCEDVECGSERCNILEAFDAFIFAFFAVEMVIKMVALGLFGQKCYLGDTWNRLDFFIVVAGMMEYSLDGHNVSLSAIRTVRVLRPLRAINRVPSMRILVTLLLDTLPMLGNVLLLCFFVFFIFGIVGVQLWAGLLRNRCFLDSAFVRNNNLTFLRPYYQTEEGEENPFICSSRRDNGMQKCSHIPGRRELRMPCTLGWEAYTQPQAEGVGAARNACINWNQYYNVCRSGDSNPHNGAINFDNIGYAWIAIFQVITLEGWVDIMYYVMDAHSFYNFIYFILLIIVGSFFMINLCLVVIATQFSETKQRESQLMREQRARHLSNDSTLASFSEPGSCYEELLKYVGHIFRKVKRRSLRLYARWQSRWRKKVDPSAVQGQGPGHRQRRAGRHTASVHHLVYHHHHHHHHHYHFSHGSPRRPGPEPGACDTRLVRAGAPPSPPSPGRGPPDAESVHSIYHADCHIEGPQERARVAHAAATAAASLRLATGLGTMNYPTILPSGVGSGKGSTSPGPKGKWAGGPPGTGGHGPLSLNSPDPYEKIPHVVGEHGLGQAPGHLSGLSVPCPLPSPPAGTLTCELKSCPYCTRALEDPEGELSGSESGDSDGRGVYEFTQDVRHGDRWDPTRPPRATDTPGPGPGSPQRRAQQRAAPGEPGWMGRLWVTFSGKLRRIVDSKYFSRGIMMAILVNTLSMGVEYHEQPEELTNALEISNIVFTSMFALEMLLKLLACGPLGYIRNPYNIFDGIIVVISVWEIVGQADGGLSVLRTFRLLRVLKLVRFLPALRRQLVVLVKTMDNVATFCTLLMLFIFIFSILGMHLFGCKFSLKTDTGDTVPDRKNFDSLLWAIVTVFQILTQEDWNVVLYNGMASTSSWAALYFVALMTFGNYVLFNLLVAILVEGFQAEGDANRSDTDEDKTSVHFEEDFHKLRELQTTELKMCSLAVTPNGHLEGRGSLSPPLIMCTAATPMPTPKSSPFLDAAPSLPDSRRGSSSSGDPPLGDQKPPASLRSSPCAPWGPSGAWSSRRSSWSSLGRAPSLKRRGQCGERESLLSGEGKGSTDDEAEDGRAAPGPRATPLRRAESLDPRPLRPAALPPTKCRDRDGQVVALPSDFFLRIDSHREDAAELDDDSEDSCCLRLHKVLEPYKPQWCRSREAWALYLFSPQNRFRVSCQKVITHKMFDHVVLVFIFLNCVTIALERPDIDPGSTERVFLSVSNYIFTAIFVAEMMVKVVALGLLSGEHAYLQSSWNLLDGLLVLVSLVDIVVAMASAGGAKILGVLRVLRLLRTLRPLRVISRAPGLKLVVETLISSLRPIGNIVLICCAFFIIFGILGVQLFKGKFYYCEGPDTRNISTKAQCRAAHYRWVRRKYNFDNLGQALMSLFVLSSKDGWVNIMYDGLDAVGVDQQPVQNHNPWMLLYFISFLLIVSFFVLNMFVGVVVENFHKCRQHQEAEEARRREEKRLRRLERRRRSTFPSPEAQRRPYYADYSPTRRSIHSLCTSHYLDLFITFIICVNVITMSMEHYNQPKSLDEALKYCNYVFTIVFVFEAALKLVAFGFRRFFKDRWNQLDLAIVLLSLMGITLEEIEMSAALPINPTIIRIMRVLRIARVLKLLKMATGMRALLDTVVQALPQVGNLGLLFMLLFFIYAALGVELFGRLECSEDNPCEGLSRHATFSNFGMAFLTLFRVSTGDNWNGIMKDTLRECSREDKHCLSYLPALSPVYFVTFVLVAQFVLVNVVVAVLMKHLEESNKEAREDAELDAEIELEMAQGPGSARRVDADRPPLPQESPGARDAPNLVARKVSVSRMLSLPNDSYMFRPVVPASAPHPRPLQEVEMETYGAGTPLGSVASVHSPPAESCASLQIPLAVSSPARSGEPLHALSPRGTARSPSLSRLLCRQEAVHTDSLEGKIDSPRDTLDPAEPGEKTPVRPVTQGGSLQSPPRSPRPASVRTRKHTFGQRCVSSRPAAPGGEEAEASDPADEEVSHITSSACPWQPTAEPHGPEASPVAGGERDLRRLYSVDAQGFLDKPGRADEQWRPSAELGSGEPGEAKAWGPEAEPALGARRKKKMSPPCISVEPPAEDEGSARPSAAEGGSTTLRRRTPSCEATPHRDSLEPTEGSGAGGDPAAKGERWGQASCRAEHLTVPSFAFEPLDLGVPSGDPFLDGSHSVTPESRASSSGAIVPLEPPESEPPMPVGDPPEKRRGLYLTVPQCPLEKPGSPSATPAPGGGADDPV", "assay": "T-type calcium channel block, whole cell patch clamp in HEK cells (α1H)", "format": "cell-based", "conditions": "HEK cells, patch clamp, mainly non-inactivated protocol; values above 10 μM shown as 10 μM; read-out: T-type Calcium Channel Block α1H IC50"}}}
{"compound": "O=C(NCC1CCN(CCNS(=O)(=O)C(F)(F)F)CC1)c1cc(Br)cc(Br)c1", "note": "[Compound 388, 3,5-dibromo-N-((1-(2-(trifluoromethylsulfonamido)ethyl)piperidin-4-yl)methyl)benzamide]", "values": [{"measurement": "IC50", "setting": "[1]", "value": "< 300", "unit": "nM"}, {"measurement": "IC50", "setting": "[2]", "value": 160, "unit": "nM"}]}
{"compound": "Cc1cc(F)cc(C(=O)NCC2CCN(CCNC(=O)C3(C(F)(F)F)CC3)CC2)c1", "note": "[Compound 498, 3-fluoro-5-methyl-N-((1-(2-(1-(trifluoromethyl)cyclopropanecarbox-amido)ethyl)piperidin-4-yl)methyl) benzamide]", "values": [{"measurement": "IC50", "setting": "[1]", "value": 770, "unit": "nM"}, {"measurement": "IC50", "setting": "[2]", "value": 220, "unit": "nM"}]}
{"compound": "CC(C)(C)NC(=O)CN1CCC(CNC(=O)c2cc(Cl)cc(C(F)(F)F)c2)CC1", "note": "[Compound 380, N-((1-(2-(tert-butylamino)-2-oxoethyl)piperidin-4-yl)methyl)-3-chloro-5-(trifluoromethyl)benzamide]", "values": [{"measurement": "IC50", "setting": "[1]", "value": "< 300", "unit": "nM"}, {"measurement": "IC50", "setting": "[2]", "value": 110, "unit": "nM"}]}
{"compound": "O=C(NCC1CCN(CC(=O)N2CC[C@H](C(F)(F)F)C2)CC1)c1cc(F)cc(C(F)(F)F)c1", "note": "[Compound 355, (S)-3-fluoro-N-((1-(2-oxo-2-(3-(trifluoromethyl)pyrrolidin-1-yl)ethyl)piperidin-4-yl)methyl)-5-(trifluoromethyl)benzamide]", "values": [{"measurement": "IC50", "setting": "[1]", "value": "< 300", "unit": "nM"}, {"measurement": "IC50", "setting": "[2]", "value": 160, "unit": "nM"}]}
{"compound": "CC(C)(C)NCC(=O)N1CCC(CNC(=O)c2cc(F)cc(C(F)(F)F)c2)CC1", "note": "[Compound 265, N-((1-(2-(tert-butylamino)acetyl)piperidin-4-yl)methyl)-3-fluoro-5-(trifluoromethyl)benzamide]", "values": [{"measurement": "IC50", "setting": "[1]", "value": 2060, "unit": "nM"}, {"measurement": "IC50", "setting": "[2]", "value": 3760, "unit": "nM"}]}
{"compound": "O=C(NCC1CCN(C(=O)CNC2CC2)CC1)c1cc(C(F)(F)F)cc(C(F)(F)F)c1", "note": "[Compound 257, N-((1-(2-(cyclopropylamino)acetyl)piperidin-4-yl)methyl)-3,5-bis(trifluoromethyl)benzamide]", "values": [{"measurement": "IC50", "setting": "[1]", "value": 3210, "unit": "nM"}, {"measurement": "IC50", "setting": "[2]", "value": 2420, "unit": "nM"}]}
{"compound": "CC1CCC(C(=O)N(C)CCN2CCC(CNC(=O)c3cc(F)cc(C(F)(F)F)c3)CC2)CC1", "note": "(centres unmarked) [Compound 519, N-((1-(2-(N,4-dimethylcyclohexanecarboxamido)ethyl)piperidin-4-yl)methyl)-3-fluoro-5-(trifluoromethyl)benzamide]", "values": [{"measurement": "IC50", "setting": "[1]", "value": "< 300", "unit": "nM"}, {"measurement": "IC50", "setting": "[2]", "value": 240, "unit": "nM"}]}
{"compound": "Cc1cc(F)cc(C(=O)NCC2CCN(CC(=O)N3CCC[C@H]3C(F)(F)F)CC2)c1", "note": "[Compound 464, (S)-3-fluoro-5-methyl-N-((1-(2-oxo-2-(2-(trifluoromethyl)pyrrolidin-1-yl)ethyl)piperidin-4-yl)methyl)benzamide]", "values": [{"measurement": "IC50", "setting": "[1]", "value": "< 300", "unit": "nM"}, {"measurement": "IC50", "setting": "[2]", "value": 140, "unit": "nM"}]}
{"compound": "CC(C)(C)S(=O)(=O)NCCN1CCC(CNC(=O)c2cc(F)cc(Cl)c2)CC1", "note": "[Compound 565, 3-chloro-N-((1-(2-(1,1-dimethylethylsulfonamido)ethyl)piperidin-4-yl)methyl)-5-fluoro-benzamide]", "values": [{"measurement": "IC50", "setting": "[1]", "value": 310, "unit": "nM"}, {"measurement": "IC50", "setting": "[2]", "value": 220, "unit": "nM"}]}
{"compound": "CCS(=O)(=O)NC1(CN2CCC(CNC(=O)c3cc(C(F)(F)F)cc(C(F)(F)F)c3)CC2)CCCC1", "note": "[Compound 3, N-((1-((1-(ethylsulfonamido)cyclopentyl)methyl)piperidin-4-yl)methyl)-3,5-bis(trifluoromethyl)benzamide]", "values": [{"measurement": "IC50", "setting": "[1]", "value": "< 300", "unit": "nM"}, {"measurement": "IC50", "setting": "[2]", "value": 550, "unit": "nM"}]}
{"compound": "O=C(NCC1CCN(CCNS(=O)(=O)C2CCCC2)CC1)c1cc(F)cc(C(F)(F)F)c1", "note": "[Compound 307, N-((1-(2-(cyclopentanesulfonamido)ethyl)piperidin-4-yl)methyl)-3-fluoro-5-(trifluoromethyl)benzamide]", "values": [{"measurement": "IC50", "setting": "[1]", "value": "< 300", "unit": "nM"}, {"measurement": "IC50", "setting": "[2]", "value": 340, "unit": "nM"}]}
{"compound": "COc1cc(Cl)cc(C(=O)NCC2CCN(CCNS(=O)(=O)C(F)(F)F)CC2)c1", "note": "[Compound 326, 3-chloro-5-methoxy-N-((1-(2-(trifluoromethylsulfonamido)ethyl)piperidin-4-yl)methyl)benzamide]", "values": [{"measurement": "IC50", "setting": "[1]", "value": "> 10000", "unit": "nM"}, {"measurement": "IC50", "setting": "[2]", "value": 6990, "unit": "nM"}]}
{"compound": "CC(C)(C(=O)NCCN1CCC(CNC(=O)c2cccc(Cl)c2)CC1)C(F)(F)F", "note": "[Compound 494, 3-chloro-N-((1-(2-(3,3,3-trifluoro-2,2-dimethylpropanamido)ethyl)piperidin-4-yl)methyl)benzamide]", "values": [{"measurement": "IC50", "setting": "[1]", "value": "< 300", "unit": "nM"}, {"measurement": "IC50", "setting": "[2]", "value": 160, "unit": "nM"}]}
